# Source: the SangsterLogP compilation
# Experiments:
# [1] = method code SF-AS, from DOI: 10.1007/s001289900721, PMID: 9657823
# [2] = method code SF-AS, from DOI: 10.1039/ft9938903773
# [3] = method code SF, from DOI: 10.1093/jnci/60.2.345, PMID: 621753
# [4] = method code SF-AS, from DOI: 10.1016/0006-2952(65)90227-3, PMID: 14322976; conditions: pH 6.8
# [5] = not given; remark: listed apart in the source
# [6] = method code SF-RC, from DOI: 10.1002/ps.2780190203
# [7] = not given; remark: listed apart in the source
# [8] = not given; remark: listed apart in the source
# [9] = method code SF-AS, from DOI: 10.1016/0045-6535(84)90003-1
# [10] = method code HPLC, from DOI: 10.1016/j.ejmech.2015.05.022, PMID: 26005028; conditions: pH 7.1
# [11] = method code SF-GLC, from DOI: 10.1021/j100260a019
# [12] = method code SF, from DOI: 10.1016/0006-2952(91)90449-f, PMID: 1930261; conditions: pH 2.0
# [13] = method code SF-RC, from DOI: 10.1016/0014-2999(79)90231-0, PMID: 527663
# [14] = not given; remark: listed apart in the source
# [15] = not given; remark: listed apart in the source
# [16] = not given; remark: listed apart in the source
# [17] = not given; remark: listed apart in the source
# [18] = method code SF-AS, from DOI: 10.1111/j.2042-7158.1989.tb06384.x, PMID: 2576447; conditions: pH 7.4
# [19] = method code SF-AS, from DOI: 10.1021/jm00304a030, PMID: 5793164; conditions: pH 7.4
# [20] = not given; remark: listed apart in the source
# [21] = method code SF, from Korenman, Y. (1975). Extraction of hydroxybenzoic acids and some of their derivatives from aqueous solution. Zh. Prikl. Khim., 48(6)1472-1474.; conditions: pH 2.0
# [22] = method code SF-RC, from DOI: 10.1021/jm901332c, PMID: 19921956; conditions: pH 7.4
# [23] = method code SF-RC, from DOI: 10.1002/ps.2780130506
# [24] = not given; remark: listed apart in the source
# [25] = not given; remark: listed apart in the source
# [26] = method code SF-GLC, from DOI: 10.1021/je970020p
# [27] = not given; remark: listed apart in the source
# [28] = pH 5.6
# [29] = method code SF-GLC,AS, from DOI: 10.2134/jeq1981.00472425001000030028x
# [30] = method code SF-GLC, from Park, Y.; Park, S. (2000). Determination and prediction of octanol/water partition coefficients and air-water partition coefficients for environmental toxic chemicals. 11(7)773-779.
# [31] = not given; remark: listed apart in the source
# [32] = not given; remark: listed apart in the source
# [33] = method code SF-GLC, from DOI: 10.1016/s0003-2670(00)84505-5
# [34] = not given; remark: listed apart in the source
# [35] = method code SF, from DOI: 10.1016/0378-5173(87)90234-1; conditions: pH 4.0
# [36] = not given; remark: listed apart in the source
# [37] = not given; remark: listed apart in the source
# [38] = method code SF-HPLC, from DOI: 10.1002/jat.2550130210, PMID: 8486911; conditions: pH 13.0
# [39] = method code SF-HPLC, from DOI: 10.1016/j.jchromb.2013.02.012, PMID: 23500352; conditions: pH 4.4
# [40] = not given; remark: listed apart in the source
# [41] = method code SF-AS, from PMID: 640322; conditions: pH 4.0
# [42] = not given; remark: listed apart in the source
smiles,measurement,setting,value
COc1ccc(OC)c(C=O)c1,logP,[1],1.91
CCCOC(C)=O,logP,,1.11
O=C1C=CC(=O)C=C1,logP,[2],0.3
O=NN(CCCl)C(=O)NCCO,logP,[3],0.3
O=Nc1ccc(O)c(=O)cc1,logD,[4],0.83
Oc1c(Cl)c(Cl)cc(Cl)c1Cl,logP,[5],4.47
O=c1ccc(O)n[nH]1,logP,[6],-0.63
N#Cc1ccccc1,logP,[7],1.5
O=C(O)c1ccccc1Br,logP,[8],2.19
Oc1ccc(Cl)c(Cl)c1Cl,logP,[9],3.8
O=NN(CCCl)C(=O)N1CCCC1,logP,[3],0.9
CC(=O)OC[C@H]1O[C@@H](OC(C)=O)[C@H](NC(=O)CBr)[C@@H](OC(C)=O)[C@@H]1OC(C)=O,logD,[10],0.23
CC(C)COCC(C)C,logP,[11],2.78
Oc1c(Cl)cccc1Cl,logP,[5],2.92
O=C1NC(=O)C(=O)C(=O)N1,logD,[12],-1.86
O=C(O)c1cccc(O)c1,logP,[8],1.39
O=C(O)[C@H]1O[C@H](O)[C@H](O)[C@@H](O)[C@@H]1O,logD,[13]; pH 1.0,-2.57
c1ccc(-c2ccccc2)cc1,logP,[14],4.05
c1ccc(-c2nnn[nH]2)cc1,logP,[15],1.5
CCCCCC(C)=O,logP,,2.08
CCC(CC)C(=O)O,logP,[16],1.68
C=CC(=O)OCC(C)(C)C,logP,[17],2.32
Cn1c(=O)[nH]c(=O)c2nc[nH]c21,logD,[18],-0.72
c1ccc2[nH]ncc2c1,logD,[19],1.82
CCCn1c(=O)n(C)c(=O)c2nc[nH]c21,logD,[18],1.02
CCN(CC)C(C)=O,logP,[20],0.37
O=C(O)c1ccc(O)c(O)c1O,logD,[21],1.05
Nc1ccc(F)cc1F,logP,[14],1.56
CCCCCC(CCC)C(=O)O (stereo not given),logP,[16],3.2
Cn1cnc2c(Br)ncnc21,logD,[22],0.52
NC(=O)Nc1ccc(Cl)cc1,logP,[23],1.8
O=c1[nH]cnc2c1ncn2[C@@H]1O[C@H](CO)[C@@H](O)[C@H]1O,logP,[24],-1.81
Cc1cc(OCC(=O)O)ccc1S(C)(=O)=O,logP,[6],0.54
Nc1ccccc1N,logP,[25],0.15
Clc1cc(Cl)c(Cl)c(Cl)c1Cl,logP,[26],5.2
O=C1NC(=O)C(O)C(=O)N1,logD,[12],-1.85
CCC(c1ccccc1)c1c(O)c2ccccc2oc1=O (stereo not given),logP,[13],3.62
O=Cc1cc(O)ccc1O,logP,[1],0.54
Cc1ccccc1[N+](=O)[O-],logP,[20],2.17
CC(C)C(=O)NC(N)=O,logP,[27],0.04
O=C1C=CC(=O)c2c(O)ccc(O)c21,logP,[2],1.79
NS(=O)(=O)c1ccc(O)cc1,logD,[28],0.06
CCCNc1c([N+](=O)[O-])cc(C(F)(F)F)cc1[N+](=O)[O-],logP,[29],3.65
Brc1ccccc1-c1nnn[nH]1,logP,[15],1.81
Nc1ccc(O)c([N+](=O)[O-])c1,logP,[25],0.96
CC(=O)CC(C)C,logP,[30],1.4
O=C(O)c1cccc(C(=O)O)n1,logP,[31],0.45
Oc1cccc(Br)c1Br,logP,[32],3.37
COc1cc(Cl)c(Cl)cc1O,logP,[33],3.19
c1ccnnc1,logP,[34],-0.15
O=C(OC1CCCCC1)n1cc(F)c(=O)[nH]c1=O,logD,[35],1.42
Oc1c(Cl)ccc(Cl)c1Cl,logP,[9],3.77
Nc1c(Cl)c(Cl)cc(Cl)c1Cl,logP,[36],4.06
CC1CCC(C)O1 (stereo not given),logP,[11],1.22
CCCNC(=O)CBr,logD,[10],0.91
C1CCOC1,logP,[30],0.5
Cc1c(Cl)cccc1[N+](=O)[O-],logP,[37],3.09
C=CC(=O)OC,logP,[17],0.74
Nc1ncnc2nn[nH]c12,logP,[24],-0.96
Oc1c(F)c(F)c(F)c(F)c1F,logP,[32],2.96
CC(C)CC(=O)NC(N)=O,logP,[27],0.45
Cc1cccc([N+](=O)[O-])c1,logP,[37],2.4
C=CCNCC=C,logD,[38],1.08
CS(=O)(=O)OC[C@H](O)[C@@H](O)COS(C)(=O)=O,logD,[39],-1.58
O=[N+]([O-])c1ccc(Cl)c(Cl)c1Cl,logP,[40],3.54
Cc1cccc(C)c1,logP,[7],3.37
O=C(O)c1cc(Br)ccc1O,logD,[21],2.87
CCOc1cccc(O)c1,logD,[28],1.98
Cn1cnc2c(Cl)ncnc21,logD,[22],0.38
Nc1c([N+](=O)[O-])cc(C(F)(F)F)cc1[N+](=O)[O-],logP,[29],2.29
NC(=O)N(CCCCCCN(N=O)C(N)=O)N=O,logD,[41],0.58
CCOc1cc(Cl)c(Cl)c(Cl)c1,logP,[42],4.61
CC(C)c1ccccc(=O)c1O,logD,[4],0.96
COc1c(O)c(Cl)c(Cl)c(Cl)c1Cl,logP,[33],4.42
Cc1cccc(C(=O)O)n1,logP,[31],-1.22
O=C1Cc2ccccc2N1,logD,[19],1.15
CCCCN(N=O)C(N)=O,logD,[41],1.04
CS(=O)(=O)OC[C@H](O)[C@@H]1CO1,logD,[39],-1.18
COc1cc(Cl)c(Cl)c(Cl)c1,logP,[42],4.1
CSc1cccc(NC(N)=O)c1,logP,[23],1.57
COc1ccnnc1,logP,[34],0.24
Clc1cc(Cl)cc(Cl)c1,logP,[26],4.09
O=[N+]([O-])c1ccc(CCBr)cc1,logP,[40],2.9
CC(C)CNCC(C)C,logD,[38],2.67
Nc1cc(Cl)c(Cl)cc1Cl,logP,[36],3.31
